Data: patent publication EP0863156A1, “Peptides useful as somatostatin antagonists” (American Cyanamid Company, priority 1997, dated 1998)
Square brackets hold non-standard residues; d marks the D form. Peptide text beside a SMILES is read from it.

Assays:
SSTR2 [1] = biological target: T1, SSTR2 (Rattus norvegicus, UniProt P30680); experiment: cAMP accumulation in forskolin-stimulated GH4C1/SSTR2 cells (SPA radioimmunoassay); type: cell-based; set-up: expressed in transfected cells; host or cells: GH4C1 rat pituitary tumor cells (GH4C1/SSTR2); conditions: in the absence of SRIF (inverse agonist activity)
T1 sequence (P30680 whole entry): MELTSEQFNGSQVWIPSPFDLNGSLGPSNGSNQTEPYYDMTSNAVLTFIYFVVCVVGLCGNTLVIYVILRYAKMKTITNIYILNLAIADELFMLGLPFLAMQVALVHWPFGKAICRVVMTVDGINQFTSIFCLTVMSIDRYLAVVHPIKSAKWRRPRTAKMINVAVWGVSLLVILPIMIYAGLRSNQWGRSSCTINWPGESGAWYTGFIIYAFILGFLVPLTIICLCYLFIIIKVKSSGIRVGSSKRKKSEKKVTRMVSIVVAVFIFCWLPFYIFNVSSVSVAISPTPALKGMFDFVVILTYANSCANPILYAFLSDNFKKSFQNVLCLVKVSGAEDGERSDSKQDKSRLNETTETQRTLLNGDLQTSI
Description: A primary effect of SRIF upon mammalian cells is the reduction of cyclic adenosine 3',5'-monophosphate(cAMP) levels, via inhibition of adenylyl cyclase. This is the basis of a common assay for SRIF agonists and antagonists, whereby SRIF agonists reduce artificially stimulated cAMP levels, and SRIF antagonists reverse the effect of SRIF. The rat pituitary tumor cell line GH4C1 predominantly expresses SSTR2, and responds to SRIF and to forskolin, a stimulator of adenylate cyclase (see C.M. Eppler, et al., J. Biol. Chem., 267, 15603-15612, 1992, incorporated herein by reference). […] This increases the response to SRIF and provides a greater dynamic range for the measurement of SRIF antagonist activity.
Stimulation of cells. GH4C1/SSTR2 cells, grown in DMEM with 10% bovine serum, are released from a tissue culture dish by incubation for several minutes at 37° C with PBS containing 0.5 mM EDTA. Cells are washed in induction buffer (PBS containing 100 µM IBMX (an inhibitor of cAMP breakdown) and 2 mM CaCl2) at room temperature, and resuspended at 2 x 10^6/mL in induction buffer. Into each well of a 96-well tray are added 50 µL of a 2 X concentration of stimulants in induction buffer. […] Baseline cAMP levels are determined in samples with no added forskolin or SRIF, and each treatment is performed in triplicate.
cAMP assay. […] The 96-well tray is sealed, shaken at room temperature overnight and measured for bound radioligand in a MicroBeta liquid scintillation counter (Wallac, Gaithersburg. MD). The standard curve is determined for each experiment by performing a nonlinear regression (exponential decay) analysis of cpm measured for the cAMP standards vs. their log concentrations, and test sample values are determined by using Prism software (Graphpad Software Inc., San Diego, CA) and are shown in Table II and Figure 1.
The intrinsic activity of an SRIF antagonist is the percent reversal of the SSTR2 activation by SRIF or MK678, wherein 0% is defined by cAMP levels in samples treated with forskolin plus SRIF or MK678 and 100% is the cAMP level measured after treatment with forskolin alone. […]

[2] = system: spontaneous growth hormone secretory pulses; experiment: Spontaneous growth hormone secretory pulses in conscious rats under intravenous infusion; type: in vivo, Male Sprague-Dawley rats; conditions: Figure 5
Description: Evaluation in conscious rats. Male Sprague-Dawley rats are fitted so as to allow efficient intravenous treatment with control and test compounds as well as frequent blood sampling. Blood samples are tested for growth hormone (GH) levels by radioimmunoassay. Blood samples are taken over a 12 hour period. At a 6 hour time point, peptide 1 is infused intravenously (300 µg/hr) into conscious, freely moving male rats for two hours. Control animals receive saline infusions over the same time period. […] It is known, SRIF is required for growth hormone pulsatility and that an SRIF antagonist abolishes said pulsatility (see Tannenbaum, G.S. and Ling, N., Endocrinology, 115, 1952-1957, 1984, incorporated herein by reference).

SSTR2 [3] = biological target: T1, SSTR2; experiment: cAMP accumulation in forskolin-stimulated GH4C1/SSTR2 cells (SPA radioimmunoassay); type: cell-based; set-up: expressed in transfected cells; host or cells: GH4C1 rat pituitary tumor cells
Description: This is the basis of a common assay for SRIF agonists and antagonists, whereby SRIF agonists reduce artificially stimulated cAMP levels, and SRIF antagonists reverse the effect of SRIF. […] This increases the response to SRIF and provides a greater dynamic range for the measurement of SRIF antagonist activity.
Stimulation of cells. GH4C1/SSTR2 cells, grown in DMEM with 10% bovine serum, are released from a tissue culture dish by incubation for several minutes at 37° C with PBS containing 0.5 mM EDTA. Cells are washed in induction buffer (PBS containing 100 µM IBMX (an inhibitor of cAMP breakdown) and 2 mM CaCl2) at room temperature, and resuspended at 2 x 10^6/mL in induction buffer. Into each well of a 96-well tray are added 50 µL of a 2 X concentration of stimulants in induction buffer. […] To initiate stimulation of the cells, 50 µL (100,000) cells are added to each well, mixed by shaking 10 seconds on a plate shaker and placed at 37° C for 15 minutes. Stimulation is arrested and cells are lysed by adding 15 µL 0.33 N HCI to each well and incubating the plate for 30 minutes at 37° C. Samples are neutralized by addition of 15 µL 0.25 N NaOH/50 mM Hepes pH 7.4. Baseline cAMP levels are determined in samples with no added forskolin or SRIF, and each treatment is performed in triplicate.
cAMP assay. To measure accumulated cAMP in the samples, a radioimmunoassay is employed. The scintillation proximity assay (SPA, Amersham, Arlington Heights, IL) allows the rapid measurement of ^125I cAMP bound to a specific antibody without separating bound radioligand from free radioligand. Each of the following reagents (15 µL) are added per well in a 96-well tray: supernatants from the cell stimulation; ^125I cAMP; SPA beads conjugated to monkey anti-rabbit IgG antibodies; and rabbit anti-cAMP antibodies. For the standard curve, known amounts of cAMP (0.2 - 12.8 pmol) are added in place of cell supernatants. The 96-well tray is sealed, shaken at room temperature overnight and measured for bound radioligand in a MicroBeta liquid scintillation counter (Wallac, Gaithersburg. MD).
The intrinsic activity of an SRIF antagonist is the percent reversal of the SSTR2 activation by SRIF or MK678, wherein 0% is defined by cAMP levels in samples treated with forskolin plus SRIF or MK678 and 100% is the cAMP level measured after treatment with forskolin alone. Therefore, increased intrinsic activity of a test compound indicates increased antagonist activity of said test compound.
An inverse agonist is a compound that is not only a pure antagonist (i.e. lacking agonist activity), but also blocks the constitutive activity of an unoccupied receptor. One indication of inverse agonist activity is the ability of a SRIF antagonist to increase cAMP levels in the absence of added SRIF.

## CC[C@@H](C)[C@@H](NC(=O)[C@@H](Cc1ccccc1)NC(=O)[C@@H](Cc1c[nH]cn1)NC(C)=O)C(=O)N[C@H](CCCNC(=N)N)C(=O)N[C@H](Cc1c[nH]c2ccccc12)C(=O)N[C@H](Cc1ccccc1)C(N)=O [Peptide 1, Ac-D-His-D-Phe-D-Ile-D-Arg-D-Trp-D-Phe-NH2] (Ac-[dH][dF][dI][dR][dW][dF]-NH2)
SSTR2 [1]
  forskolin-stimulated cAMP levels: increase in forskolin-stimulated cAMP levels
[2]; conscious male rats, after end of the two hour infusion of 300 µg/hr
  growth hormone secretory pulses upon withdrawal: the pulses resume synchronously, and gradually desynchronize with time
[2]; conscious, freely moving male rats, 300 µg/hr intravenously for two hours from 6 hour time point
  spontaneous growth hormone secretory pulses during infusion: abolition of these pulses
SSTR2 [3]; Forskolin 1.25 µM + MK 678 10 nM + Peptide 1 1 µM (forskolin + MK 678 alone 0.91)
  cAMP: 1.14 pM per 4 x 10^4 cells
SSTR2 [3]; Forskolin 1.25 µM + MK 678 10 nM + Peptide 1 10 µM (forskolin + MK 678 alone 0.91)
  cAMP: 2.69 pM per 4 x 10^4 cells
SSTR2 [3]; Forskolin 1.25 µM + MK 678 10 nM + Peptide 1 50 µM (forskolin + MK 678 alone 0.91)
  cAMP: 3.32 pM per 4 x 10^4 cells
SSTR2 [3]; Forskolin 1.25 µM, no MK 678, Peptide 1 1 µM (forskolin alone 3.04; baseline 0.36)
  cAMP: 2.57 pM per 4 x 10^4 cells
SSTR2 [3]; Forskolin 1.25 µM, no MK 678, Peptide 1 10 µM (forskolin alone 3.04; baseline 0.36)
  cAMP: 3.05 pM per 4 x 10^4 cells
SSTR2 [3]; Forskolin 1.25 µM, no MK 678, Peptide 1 50 µM (forskolin alone 3.04; baseline 0.36)
  cAMP: 3.33 pM per 4 x 10^4 cells
SSTR2 [3]; GH4-C1, test peptide 2 µM, percent reversal of SSTR2 activation by SRIF or MK678, 0% = forskolin plus agonist, 100% = forskolin alone, read-out: cAMP Assay Intrinsic activity
  Emax at 2 µM: 85.2%
SSTR2 [3]; GH4C1/SSTR2 cells, no added SRIF, Figure 1 (Table II) and Figure 2 (Table IV)
  forskolin-stimulated cAMP levels in the absence of SRIF (inverse agonist activity): causes an increase in forskolin-stimulated cAMP levels even in the absence of SRIF
SSTR2 [3]; forskolin stimulated cells, increasing doses of S-14 or MK678, Figure 2 (Table IV)
  parallelism of the dose response curves of S-14 or MK678 with and without peptide 1: directly competing with the SRIF agonists
